Data: publication PMC10291553, “Exploring Structure–Activity Relationships in Photodynamic Therapy Anticancer Agents Based on Ir(III)-COUPY Conjugates” (Journal of Medicinal Chemistry, 2023)

How the values were obtained:
A2780cis cells [1] = assay: ROS photogeneration in cells (DCFH-DA probe); type: cell-based; conditions: 10 μM; for ROS levels after 520 nm light, normoxia: normoxia 21% O2, 520 nm, 1 h; for ROS levels in the absence of light, normoxia: dark
Method: ROS levels were determined using the 2′-7′dichlorofluorescein diacetate (DCFH-DA) probe. A2780cis cells were seeded onto 96-well black plates at 2 × 10^4cells/well for 24 h in a humidified CO2 incubator either in normoxia (21% O2) or hypoxia (2% O2). Tested compounds were then administered in cell media for the allowed time. Treatments were then removed, and cells were stained with 10 μM of DCFH-DA for 0.5 h. After staining, cells were washed with PBS twice and irradiated for 1 h with LED source light from Luzchem photoreactor (Canada) fitted with green lamps (final light intensity applied of 1.5 mW/cm^2 at λmax = 520 nm). Fluorescence readings were performed in FLUOstar Omega (λexc = 488 nm and λem = 530 ± 30 nm). Non-irradiated plates were used for dark conditions, whereas treated, unstained cells were used to subtract basal fluorescence of compounds and correct fluorescence readings. Unstained cells served as blank. Three independent experiments were performed with n = 3 replicates.

A2780cis MCTS = assay: 3D multicellular tumor spheroid growth inhibition; type: cell-based; conditions: 10 μM, 4 h incubation; for spheroid shrinkage compared to irradiated controls: 1 h 520 nm; for tumor growth of A2780cis spheres after PDT treatment: 1 h 520 nm on day 3, followed 7 days
Method: Briefly, a single suspension of A2780cis cells at a density of 5 × 10^3 cells/well in complete RPMI medium was dispatched onto 96-well Corning microplates with ultralow attachment surface coating. The plates were covered and transferred to an incubator at 310 K with a 5% CO2 atmosphere. After 3 days post-seeding, uniform MCTSs were formed, which was confirmed using an inverted Zeiss AXIO observer 7 microscope. Cell media of MCTSs was changed by replacing 50% with fresh cell media and allowed to grow for 3 days. On day 3, MTCS was incubated with tested agents (10 μM) for 4 h and then irradiated with 520 nm light for 1 h. Treatments were then carefully removed, and fresh media was added. The integrity, radius, size, and volume of the MCTSs were monitored using a DMi1 inverted phase contrast microscope (Leica Microsystems) over 7 days. The radius of the tumorspheres was measured using Fiji software, and the volume was calculated using the following equation: V = 4/3πr^3.

[2] = Superoxide anion radical generation using DHR123; type: physicochemical; conditions: 10 μM in PBS (0.2% DMSO); green light 505 nm
Method: All compounds (10 μM) were prepared in PBS (0.2% DMSO). To this solution, DHR123 was added so that its final concentration was 10 μM. Then, the samples were irradiated in 1.0 × 0.5 cm cuvette by green light (505 nm centered LED) for indicated time intervals. Immediately, the fluorescence spectra were collected by using a Photon Technology International (PTI) fluorimeter. The excitation wavelength was set to 500 nm, the excitation and emission slit widths were 2 nm, and the integration time was set to 1 s.

[3] = set-up: method as in earlier work; conditions: previously-reported parent compounds, cited from earlier work; for singlet oxygen quantum yield at 355 nm, ACN / singlet oxygen quantum yield at 355 nm, DCM / singlet oxygen quantum yield at 355 nm, PBS: excitation 355 nm
A2780cis cells [4] = assay: Cellular accumulation by ICP-MS; type: cell-based; conditions: 2 h treatment at 10 μM
Method: Briefly, A2780cis cells were seeded onto a 12-well plate (3 × 10^5 cells/well). Treatments with tested agents for 2 h were applied at 10 μM. Cisplatin was included for comparative purposes. Cells were then trypsinized, and pellets were counted. […] Three independent experiments were performed (n = 2 replicates).

SMILES: CCCCn1c2[n+](c3cc(C(=O)NCCCNC(=O)C[n+]4ccc(/C(C#N)=C5/C=C(C)c6ccc(N(CC)CC)cc6O5)cc4)ccc31)[Ir-3]13([c]4ccccc4-c4[nH]c5ccccc5[n+]41)([c]1ccccc1-c1[nH]c4ccccc4[n+]13)[n+]1c-2ccc2ccccc21 [3a]
- ROS levels after 520 nm light, normoxia (A2780cis cells [1]): strong fluorescence signal
- ROS levels in the absence of light, normoxia (A2780cis cells [1]): slightly increased ROS levels
- spheroid shrinkage compared to irradiated controls (A2780cis MCTS): statistically significant shrank
- tumor growth of A2780cis spheres after PDT treatment (A2780cis MCTS): effectively blocked tumoral growth

SMILES: CCCCn1c2[n+](c3cc(C(=O)NCCCNC(=O)C[n+]4ccc(/C(C#N)=C5/C=C(C)c6ccccc6O5)cc4)ccc31)[Ir-3]13([c]4ccccc4-c4[nH]c5ccccc5[n+]41)([c]1ccccc1-c1[nH]c4ccccc4[n+]13)[n+]1c-2ccc2ccccc21 [3b]
- superoxide anion radical generation (DHR123 fluorescence) [2]: highest maximum emission intensity of superoxide generation
- ROS levels after green-light irradiation, hypoxia (A2780cis cells [1]; hypoxia 2% O2, 520 nm): a slight increase in ROS levels
- tumor growth of A2780cis spheres after PDT treatment (A2780cis MCTS): did not show significant tumor inhibition effects

SMILES: CCN(CC)c1ccc2c(c1)O/C(=C(/C#N)c1cc[n+](C)cc1)C=C2C [1a]
- singlet oxygen quantum yield at 355 nm, ACN ([3]; ACN): < 0.01
- singlet oxygen quantum yield at 532 nm, ACN ([3]; ACN, excitation 532 nm): < 0.01
- singlet oxygen quantum yield at 355 nm, DCM ([3]; DCM): < 0.01
- singlet oxygen quantum yield at 532 nm, DCM ([3]; DCM, excitation 532 nm): 0.03
- singlet oxygen quantum yield at 355 nm, PBS ([3]; PBS): 0
- singlet oxygen quantum yield at 532 nm, PBS ([3]; PBS, excitation 532 nm): < 0.01

SMILES: CCCCn1c2[n+](c3cc(C(=O)OC)ccc31)[Ir-3]13([c]4ccccc4-c4[nH]c5ccccc5[n+]41)([c]1ccccc1-c1[nH]c4ccccc4[n+]13)[n+]1c-2ccc2ccccc21 [2a]
- singlet oxygen quantum yield at 355 nm, ACN ([3]; ACN): 0.42
- singlet oxygen quantum yield at 355 nm, DCM ([3]; DCM): 0.23
- singlet oxygen quantum yield at 355 nm, PBS ([3]; PBS): < 0.01
- Intracellular Ir levels (A2780cis cells [4]): 276 ± 12 ng/10^6 cells

SMILES: CCCCn1c2[n+](c3cc(C(=O)NCCCCCC(=O)NCCCNC(=O)C[n+]4ccc(/C(C#N)=C5/C=C(C)c6ccc(N(CC)CC)cc6O5)cc4)ccc31)[Ir-3]13([c]4ccccc4-c4[nH]c5ccccc5[n+]41)([c]1ccccc1-c1[nH]c4ccccc4[n+]13)[n+]1c-2ccc2ccccc21 [3d]
- ROS levels after 520 nm light, normoxia (A2780cis cells [1]): strong fluorescence signal
- ROS levels in the absence of light, normoxia (A2780cis cells [1]): slightly increased ROS levels
- tumor growth of A2780cis spheres after PDT treatment (A2780cis MCTS): effectively blocked tumoral growth

SMILES: CCCCn1c2[n+](c3cc(C(=O)NCCCNC(=O)C[n+]4ccc(/C(C#N)=C5/C=C(C)c6cc7c8c(c6O5)CCCN8CCC7)cc4)ccc31)[Ir-3]13([c]4ccccc4-c4[nH]c5ccccc5[n+]41)([c]1ccccc1-c1[nH]c4ccccc4[n+]13)[n+]1c-2ccc2ccccc21 [3c]
- superoxide anion radical generation (DHR123 fluorescence) [2]: fastest rates in superoxide generation
- Intracellular Ir levels (A2780cis cells [4]): 461 ± 74 ng/10^6 cells
- ROS levels after 520 nm light, normoxia (A2780cis cells [1]): strong fluorescence signal
- tumor growth of A2780cis spheres after PDT treatment (A2780cis MCTS): did not show significant tumor inhibition effects

SMILES: CCCCn1c2[n+](c3cc(C(=O)NC[C@H]4CC[C@H](C(=O)NCCCNC(=O)C[n+]5ccc(/C(C#N)=C6/C=C(C)c7ccc(N(CC)CC)cc7O6)cc5)CC4)ccc31)[Ir-3]13([c]4ccccc4-c4[nH]c5ccccc5[n+]41)([c]1ccccc1-c1[nH]c4ccccc4[n+]13)[n+]1c-2ccc2ccccc21 [3e]
- ROS levels after 520 nm light, normoxia (A2780cis cells [1]): strong fluorescence signal
- ROS levels in the absence of light, normoxia (A2780cis cells [1]): slightly increased ROS levels
- spheroid shrinkage compared to irradiated controls (A2780cis MCTS): statistically significant shrank
- tumor growth of A2780cis spheres after PDT treatment (A2780cis MCTS): effectively blocked tumoral growth
